# Data from patent US4670433A, “Oxadiazolyl imidazobenzodiazepine derivatives pharmaceutical compositions thereof, and method of treating therewith” (A/S Ferrosan, priority 1985, dated 1987).
# How the values were obtained:
# [1] = test system: benzodiazepine receptors; assay: in vivo displacement of 3H-flunitrazepam from benzodiazepine receptors in living mouse brain; details: dose reducing specific 3H-flunitrazepam binding to 50% of control; mice, usually subcutaneously, 15 min before 3H-flunitrazepam i.v., killed after a further 20 min, forebrain membranes
# Procedure: (§1) The pharmaceutical potency of the compounds of the present invention is evidenced by determining their capability for displacing radioactively-labelled flunitrazepam and the imidazobenzodiazepine ^3 H-Ro 15-1788 from such benzodiazepine receptors.
# (§2) The displacement activity of the compounds of the invention has been determined by determining their IC50 and ED50 values. The IC50 value represents the concentration (nM, 30° C.) which causes a displacement of 50% of the specific binding of ^3 H-Ro 15-1788 in samples comprising a total volume of 1 ml.
# The ED50 value represents the dose (mg/kg) of a test substance which causes the specific binding of flunitrazepam to benzodiazepine receptors in a living brain to be reduced to 50% of the control value.
# Such an in vivo test is carried out as follows:
# Groups of mice are injected with the test substance at different doses and usually subcutaneously. Fifteen minutes later ^3 H-flunitrazepam is given intravenously to the mice and, after a further twenty minutes, the mice are killed. Their forebrain membranes are removed and the radioactivity of these forebrain membranes is measured by scintillation counting. The ED50 value is determined from dose-response curves.
# [2] = biological target: benzodiazepine receptors; assay: displacement of 3H-Ro 15-1788 from benzodiazepine receptors in vitro (rat cerebral cortical membrane homogenate); details: 50% displacement of specific binding of 3H-Ro 15-1788, 30° C.
# Procedure: as §1, §2
# The displacement test is performed as follows:
# 750 μl of rat cerebral cortical membrane homogenate was incubated with 100 μl of 5 nM ^3 H-Ro 15-1788 in water at 30° C. Then 100 μl of a solution of the test compound and 50 μl of Krebs buffer was added. After incubation the binding reaction was terminated by filtration through Whatman GF/B glass fibre filters followed by 2×5 ml wash with ice-cold buffer and the radioactivity was measured by scintillation counting. The IC50 was determined by including at least four concentrations of the test compound and log/probit analysis of the resulting data.
SMILES,in vivo ED50 [1] [mg/kg],IC50 [2] [nM]
Cc1cccc2c1C(=O)N1CCC1c1c(-c3nc(C4CC4)no3)ncn1-2 (stereo not drawn),0.2,23
CCc1noc(-c2ncn3c2C2CCN2C(=O)c2c(C)cccc2-3)n1 (stereo not drawn),0.4,30
CCc1nc(-c2ncn3c2CN(C)C(=O)c2c-3cccc2C(F)(F)F)no1,0.5,5.6
CCc1noc(-c2ncn3c2CN(C)C(=O)c2c(C)cccc2-3)n1,2.2,44.8
COc1ccc2c(c1)C(=O)N(C)Cc1c(-c3nc(C)no3)ncn1-2,4.0,–
